Experimental data published in patent US6461997B1, “Triazole sulfones having herbicidal activity” (Monsanto Technology LLC, priority 1999, dated 2002).

How the values were obtained:
AMARE (redroot pigweed) = experiment: Pre-emergence herbicidal activity, warm season; type: in vivo, Amaranthus retroflexus; conditions: GR80 = lowest tested rate (300, 100, 30, 10 g/ha) with 80% or greater inhibition; approx. 14 days after treating; 30/21° C.
Procedure, shortened: (§1)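 Seeds sown in sterilised fertilised topsoil received surface-applied compound in 50:50 acetone/water, typically at 300, 100, 30 and 10 g/ha, then greenhouse-grown at 30/21° C (warm-season species) or 18/13° C (cool-season species). Percent inhibition versus untreated plants was scored at about 14 days, giving GR80; an asterisk marks activity short of 80% at the top rate.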

[1] = system: BRAPP (broadleaf signalgrass); experiment: Pre-emergence herbicidal activity, warm season; type: in vivo, Brachiaria platyphylla; conditions: GR80 = lowest tested rate (300, 100, 30, 10 g/ha) with 80% or greater inhibition; approx. 14 days after treating; 30/21° C.
Procedure, shortened: as §1

STEME (common chickweed) = experiment: Pre-emergence herbicidal activity, cool season; type: in vivo, Stellaria media; conditions: lowest tested rate with 80% or greater inhibition; rates 300, 100, 30, 10 g/ha; about 14 days
Procedure, shortened: as §1

ECHCG (barnyardgrass) = experiment: Pre-plant incorporated (PPI) herbicidal activity, warm season; type: in vivo, Echinochloa crus-galli; conditions: for PPI activity GR80, ECHCG: pre-plant incorporated, lowest tested rate with 80% or greater inhibition, about 14 days
Experimental: (§2) In another set of tests, the pre-plant incorporated (PPI) activity of compounds of this invention was evaluated on the same species as for the pre-emergence tests described above. In the PPI tests the following procedure, designed to simulate PPI application, was used.
(§3) A pre-prepared topsoil mixture (described above) was placed in a pot and compacted to a depth of 1.0 to 1.25 cm from the top of the pot. Seeds of each of several monocotyledonous and dicotyledonous annual plant species were placed on top of the soil. A sufficient quantity of soil to cover the seeds and level fill the pot was weighed into an open container. A known amount of the test compound was dissolved or suspended in an organic solvent and applied by spraying to this cover soil. The cover soil was thoroughly mixed to distribute the test compound throughout the cover soil, and was then applied as a cover layer over the seeds. Untreated soil was used as a cover layer for control pots. After treatment the plants were placed in a greenhouse where they received 0.64 cm of overhead irrigation. All subsequent watering consisted of a light overhead mist and/or subirrigation as needed for germination and growth. Tables 9 and 10 below relate to warm season plant species which were placed after pre-emergence treatment in a greenhouse with a 30/21° C. day/night temperature regime. Tables 11 and 12 below relates to cool season plant species placed after pre-emergence treatment in a greenhouse or growth chamber with an 18/13° C. day/night temperature regime. Only the compounds of Examples 1, 6, 8, 11, 13 and 15-20 were included in PPI tests.
(§4) Approximately 14 days after planting and treating, the plants were observed and herbicidal efficacy recorded as percent inhibition by comparison with untreated plants.

[2] = system: BRAPP (broadleaf signalgrass); experiment: as above; type: in vivo, Brachiaria platyphylla; conditions: for PPI activity GR80, BRAPP: pre-plant incorporated, lowest tested rate with 80% or greater inhibition, about 14 days
Experimental: as §2, §3, §4

SASKR (russian thistle) = experiment: Pre-plant incorporated (PPI) herbicidal activity, cool season; type: in vivo, Salsola kali; conditions: for PPI activity GR80, SASKR: pre-plant incorporated, lowest tested rate with 80% or greater inhibition, about 14 days
Experimental: as §2, §3, §4

[3] = system: LAMPU (purple deadnettle); experiment: as above; type: in vivo, Lamium purpureum; conditions: for PPI activity GR80, LAMPU: pre-plant incorporated, lowest tested rate with 80% or greater inhibition, about 14 days
Experimental: as §2, §3, §4

[4] = weed, PPI application, 100 g/ha
[5] = weed, PPI application, 300 g/ha
[6] = weed, PPI application, 900 g/ha

SMILES | Pre-emergence activity (GR80) AMARE (AMARE (redroot pigweed)) [g/ha] | Pre-emergence activity (GR80) BRAPP [1] [g/ha] | Pre-emergence activity GR80, STEME (STEME (common chickweed)) | Percent inhibition ECHCG (ECHCG (barnyardgrass); PPI application, 30 g/ha) [%] | Percent inhibition ECHCG (ECHCG (barnyardgrass); PPI application, 100 g/ha) [%] | Percent inhibition ECHCG (ECHCG (barnyardgrass); PPI application, 300 g/ha) [%] | Percent inhibition ECHCG (ECHCG (barnyardgrass); PPI application, 900 g/ha) [%] | Percent inhibition BRAPP ([2]; PPI application, 30 g/ha) [%] | Percent inhibition BRAPP ([2]; PPI application, 100 g/ha) [%] | Percent inhibition BRAPP ([2]; PPI application, 300 g/ha) [%] | Percent inhibition BRAPP ([2]; PPI application, 900 g/ha) [%] | Percent inhibition SASKR (SASKR (russian thistle); weed, PPI application, 30 g/ha) [%] | Percent inhibition SASKR (SASKR (russian thistle); [4]) [%] | Percent inhibition SASKR (SASKR (russian thistle); [5]) [%] | Percent inhibition SASKR (SASKR (russian thistle); [6]) [%] | Percent inhibition LAMPU ([3]; weed, PPI application, 30 g/ha) [%] | Percent inhibition LAMPU [3, 4] [%] | Percent inhibition LAMPU [3, 5] [%] | Percent inhibition LAMPU [3, 6] [%] | PPI activity GR80, ECHCG (ECHCG (barnyardgrass)) [g/ha] | further results
CCN(CC)C(=O)n1cnc(S(=O)(=O)C(F)(F)C(F)(F)Br)n1 [Example 4] | 100 | 300 | 10 g/ha | 20 | 100 | 100 | 100 | 0 | 60 | 100 | 100 | 75 | 90 | 99 | 100 | 40 | 80 | 80 | 90 | – | –
CCSC(F)(F)S(=O)(=O)c1ncn(C(=O)N(CC)CC)n1 [Example 8, 1-(N,N-diethylcarbamoyl)-3-[difluoro(ethylthio)methylsulfonyl]-1,2,4-triazole] | 100 | 100 | [empty] | – | – | – | – | – | – | – | – | – | – | – | – | – | – | – | – | 30 | inhibition at 30 g/ha (ECHCG (barnyardgrass); Echinochloa crus-galli, PPI application, 30 g/ha, read-out: Percent inhibition ECHCG): 90%; inhibition at 100 g/ha (ECHCG (barnyardgrass); Echinochloa crus-galli, PPI application, 100 g/ha, read-out: Percent inhibition ECHCG): 100%; inhibition at 300 g/ha (ECHCG (barnyardgrass); Echinochloa crus-galli, PPI application, 300 g/ha, read-out: Percent inhibition ECHCG): 100%; inhibition at 900 g/ha (ECHCG (barnyardgrass); Echinochloa crus-galli, PPI application, 900 g/ha, read-out: Percent inhibition ECHCG): 100%; inhibition at 30 g/ha ([2]; Urochloa platyphylla, PPI application, 30 g/ha, read-out: Percent inhibition BRAPP): 40%; inhibition at 100 g/ha ([2]; Urochloa platyphylla, PPI application, 100 g/ha, read-out: Percent inhibition BRAPP): 70%; inhibition at 300 g/ha ([2]; Urochloa platyphylla, PPI application, 300 g/ha, read-out: Percent inhibition BRAPP): 100%; inhibition at 900 g/ha ([2]; Urochloa platyphylla, PPI application, 900 g/ha, read-out: Percent inhibition BRAPP): 100%; PPI activity GR80, BRAPP [2]: 30 g/ha; inhibition at 30 g/ha (SASKR (russian thistle); Salsola kali, weed, PPI application, 30 g/ha, read-out: Percent inhibition SASKR): 0%; inhibition at 100 g/ha (SASKR (russian thistle); Salsola kali, weed, PPI application, 100 g/ha, read-out: Percent inhibition SASKR): 50%; inhibition at 300 g/ha (SASKR (russian thistle); Salsola kali, weed, PPI application, 300 g/ha, read-out: Percent inhibition SASKR): 90%; inhibition at 900 g/ha (SASKR (russian thistle); Salsola kali, weed, PPI application, 900 g/ha, read-out: Percent inhibition SASKR): 100%; PPI activity GR80, SASKR (SASKR (russian thistle)): 100 g/ha; inhibition at 30 g/ha ([3]; Lamium purpureum, weed, PPI application, 30 g/ha, read-out: Percent inhibition LAMPU): 80%; inhibition at 100 g/ha ([3]; Lamium purpureum, weed, PPI application, 100 g/ha, read-out: Percent inhibition LAMPU): 100%; inhibition at 300 g/ha ([3]; Lamium purpureum, weed, PPI application, 300 g/ha, read-out: Percent inhibition LAMPU): 90%; inhibition at 900 g/ha ([3]; Lamium purpureum, weed, PPI application, 900 g/ha, read-out: Percent inhibition LAMPU): 100%; PPI activity GR80, LAMPU [3]: 100 g/ha
CCN(CC)C(=O)n1cnc(S(=O)(=O)C(F)(F)SC)n1 [Example 9] | 300 | 300 | 300 g/ha | 90 | 100 | 100 | 100 | 70 | 80 | 100 | 100 | 50 | 100 | 95 | 100 | 0 | 40 | 100 | 95 | – | –
CCN(CC)C(=O)n1cnc(S(=O)(=O)C(F)(F)SCc2ccccc2)n1 [Example 10] | 100 | 300 | 300 g/ha | 0 | 50 | 100 | 100 | 20 | 70 | 100 | 100 | 20 | 90 | 100 | 100 | 0 | – | 0 | 50 | – | Percent inhibition ECHCG (ECHCG (barnyardgrass); PPI application, 10 g/ha): 0%; Percent inhibition BRAPP ([2]; PPI application, 10 g/ha): 0%; Percent inhibition SASKR (SASKR (russian thistle); weed, PPI application, 10 g/ha): 10%; Percent inhibition LAMPU ([3]; weed, PPI application, 10 g/ha): 0%
CCN(CC)C(=O)n1cnc(S(=O)(=O)C(F)(F)C(F)F)n1 [Example 16] | 300 | 300 | 300 g/ha | 100 | 100 | 100 | 100 | 60 | 100 | 100 | 100 | 90 | 80 | 80 | 100 | 80 | 90 | 80 | 90 | 30 | Percent inhibition ECHCG (ECHCG (barnyardgrass); PPI application, 10 g/ha): 90%; Percent inhibition BRAPP ([2]; PPI application, 10 g/ha): 20%; PPI activity GR80, BRAPP [2]: 10 g/ha; PPI activity GR80, SASKR (SASKR (russian thistle)): 30 g/ha; Percent inhibition SASKR (SASKR (russian thistle); weed, PPI application, 10 g/ha): 65%; PPI activity GR80, LAMPU [3]: 10 g/ha; Percent inhibition LAMPU ([3]; weed, PPI application, 10 g/ha): 50%
